The target in assay [1] is T1, recombinant cGAS (aa147-522) (Homo sapiens, UniProt Q8N884).
T1 construct: recombinant cGAS (aa147-522); His6-SUMO (N, cleaved yes); made in house; host or cells: E. coli BL21/pLys
Kind of assay: In vitro assay for inhibition of cGAS activity (ATP consumption, Kinase Glo). As to conditions: 37° C. 20 minutes, read-out: Activity (Inhibition of cGAS enzyme activity in vitro, IC50). The class given is biochemical. In outline:
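Human cGAS (aa147-522) at 1.5 ng/μL incubated with serially diluted compound at 37° C for 20 min; remaining ATP read by Kinase Glo luminescence. IC50 from percent ATP consumption plotted against log compound concentration.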
Background: Kinase-Glo measures the ATP left after a reaction by luminescence.

Assay [2] relates to cGAS activity in THP1 cells. Description: Cellular assay: ISRE-Gaussia luciferase reporter THP1 cells transfected with ISD (Interferon Stimulatory DNA). The format is cell-based. As to conditions: Homo sapiens, THP-1; ISRE-Gaussia luciferase reporter THP1 cells transfected with 2 μg/mL ISD, 16 hours; read-out: THP1-ISD (Inhibition of cGAS activity in THP1 cells, IC50). On the procedure:
(§1) A reporter THP1 cell line harboring a gene encoding Gaussia Luciferase under the control of 5 tandem repeats of interferon-stimulated response elements (ISRE) was used to test inhibition of cGAS activity by synthetic compounds in human cells. These cells were plated on 96-well plates at 0.3×10^6/well and incubated with various concentrations of compounds or DMSO for 5 min, followed by transfection of 2 μg/mL of ISD (Interferon Stimulatory DNA, a 45 bp DNA oligo) or mock transfected using lipofectamine 2000 (Life Technology) method, according to manufacturer's instructions. 16 hours later, 15 μL of the media from each well is transferred to a new plate, 50 μL of solution containing 50 mM Hepes-NaOH, 50 mM NaCl, 10 mM EDTA, 1 μM of coeleanterazine was added to each well and luminescence was measured immediately. Fold increase in luminescence compared to mock transfection is plotted against concentrations of each compound, and IC50 is calculated using Graphpad. To evaluate the specificity of a compound, the same procedure was performed except that cells were transfected with 2 μg/mL poly(I:C) or infected with Sendai Virus (SeV) at 50 Unit/mL, which are known to activate the RIG-I-MAVS pathway. A specific inhibitory compound should inhibit interferon induction by DNA but have minimal effect on poly(I:C) or Sendai virus induced interferon reporter gene expression.

Assay [3] has as its system RIG-I-MAVS pathway. Description: Specificity assay: ISRE reporter THP1 cells infected with Sendai Virus (SeV). The format is cell-based. As to conditions: Homo sapiens, THP-1; ISRE-Gaussia luciferase reporter THP1 cells infected with Sendai Virus (SeV) at 50 Unit/mL. On the procedure: as §1
In general terms: In a reporter assay the amount or activity of a reporter protein is the signal.

T1 sequence (Q8N884 147-522): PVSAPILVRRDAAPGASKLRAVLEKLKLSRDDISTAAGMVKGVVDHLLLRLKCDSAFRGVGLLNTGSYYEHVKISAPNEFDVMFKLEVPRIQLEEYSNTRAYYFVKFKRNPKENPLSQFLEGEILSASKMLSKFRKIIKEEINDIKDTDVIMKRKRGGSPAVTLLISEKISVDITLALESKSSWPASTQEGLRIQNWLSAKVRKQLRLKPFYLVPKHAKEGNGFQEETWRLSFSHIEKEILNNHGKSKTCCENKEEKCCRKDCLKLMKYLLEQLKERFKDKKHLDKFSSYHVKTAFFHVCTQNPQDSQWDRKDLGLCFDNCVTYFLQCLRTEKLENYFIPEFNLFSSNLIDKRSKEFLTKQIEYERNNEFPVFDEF

Turning to `CN1C(=O)S/C(=C\c2cc(OCc3cncnc3)c(O)cc2Br)C1=O` [Ex140], the IC50 (commonly the concentration that gives 50% inhibition) in assay [1] is at most 0.5 µM; in assay [2] it was at most 2.5 µM; in assay [3], at least 10 µM.

Take `CC(C)C(=O)N1CCC(COc2cc(/C=C3\SC(=O)N(C)C3=O)c(Br)cc2O)CC1` [Ex87]: the IC50 is 0.5 to 10 µM in assay [1], 2.5 to 10 µM in assay [2] and at least 10 µM in assay [3].

In the case of `CN1C(=O)S/C(=C\c2cc(OCc3cnc(NCc4cccnc4)nc3)c(O)cc2Br)C1=O` [Ex156], the figures for the IC50 in assay [1], in assay [2] and in assay [3] were at most 0.5 µM, 2.5 to 10 µM and at least 10 µM, respectively.

As to `COc1cc(/C=C2\SC(=O)N(C)C2=O)c(Br)c(F)c1O` [Ex63], the IC50 in assay [1] is at most 0.5 µM; in assay [2], 2.5 to 10 µM; in assay [3] it was at least 10 µM.

`CC(Oc1cc(/C=C2\SC(=O)N(C)C2=O)c(Br)c(F)c1O)C(O)c1cnc(N)nc1` (stereo not drawn) [ExB4]: the half-inhibitory concentration (IC50) is at most 0.5 µM in assay [1], at least 10 µM in assay [2] and at least 10 µM in assay [3].

For the compound `COc1cc(/C=C2\SC(=O)N(C)C2=O)c(I)cc1O` [Ex65], the IC50 in assay [1] is at most 0.5 µM; in assay [2] it was 2.5 to 10 µM; in assay [3], at least 10 µM.

For `CN1C(=O)S/C(=C\c2cc(OCC3CCCCC3)c(O)cc2Br)C1=O` [Ex86], the results for the 50% inhibitory concentration (IC50) in assay [1], in assay [2] and in assay [3] were 0.5 to 10 µM, 2.5 to 10 µM and 2.5 to 10 µM, respectively.

For the compound `Nc1ncc(COc2cc(/C=C3\Sc4ncccc4C3=O)c(Br)cc2O)cn1` [Ex194], the IC50 in assay [1] is at most 0.5 µM; in assay [2], at most 2.5 µM; in assay [3] it was at least 10 µM.

Take `O=C1/C(=C/c2cc(OCc3cncnc3)c(O)cc2Br)Sc2ncccc21` [Ex193]: the IC50 in assay [1] is at most 0.5 µM; in assay [2] it was 2.5 to 10 µM; in assay [3], at least 10 µM.

Take `O=C1/C(=C/c2cc(OCc3cnc(NCc4ccccn4)nc3)c(O)c(F)c2Br)Sc2ncccc21` [ExA2]: the IC50 in assay [1] is at most 0.5 µM; in assay [2] it was at least 10 µM; in assay [3] it was at least 10 µM.

Take `CN1C(=O)S/C(=C\c2cc(OCc3cnc(NCc4ccccn4)nc3)c(O)cc2Br)C1=O` [Ex155]: the 50% inhibitory concentration (IC50) in assay [1] was at most 0.5 µM; in assay [2] it was 2.5 to 10 µM; in assay [3], at least 10 µM.

For the origin of these results see patent publication US12065416B2, “cGAS antagonist compounds” (IMMUNESENSOR THERAPEUTICS, INC., priority 2016, dated 2024).
